According to ChEMBL document CHEMBL1201862, “PubChem BioAssay data set” (2004):
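Protocol summary: plate cells (96-well), add compound at 5 concentrations, incubate 48 h, interpolate endpoints linearly. GI50: concentration for 50% inhibition of growth.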 Calls of active or inactive are those of the source. Rule as the data show it: active = GI50 up to about 1.1 µM and inactive = higher.

Experiments:
Test in all cases: NCI-60 cell line screen, 48 h
NCI/ADR-RES = test system: NCI/ADR-RES
HCT-116 = test system: HCT-116
786-0 = test system: 786-0
MDA-N = test system: MDA-N
SK-MEL-28 = test system: SK-MEL-28
HOP-92 = test system: HOP-92
K562 = test system: K562
HCC 2998 = test system: HCC 2998
LOX IMVI = test system: LOX IMVI
NCI-H460 = test system: NCI-H460
OVCAR-3 = test system: OVCAR-3
RPMI-8226 = test system: RPMI-8226
MCF7 = test system: MCF7
RXF 393 = test system: RXF 393
SNB-19 = test system: SNB-19
OVCAR-5 = test system: OVCAR-5
IGROV-1 = test system: IGROV-1
EKVX = test system: EKVX
MDA-MB-231 = test system: MDA-MB-231
CCRF-CEM = test system: CCRF-CEM

Row | SMILES | GI50 (NCI/ADR-RES) | GI50 (HCT-116) | GI50 (786-0) | GI50 (MDA-N) | GI50 (SK-MEL-28) | GI50 (HOP-92) | GI50 (K562) | GI50 (HCC 2998) | GI50 (LOX IMVI) | GI50 (NCI-H460) | GI50 (OVCAR-3) | GI50 (RPMI-8226) | GI50 (MCF7) | GI50 (RXF 393) | GI50 (SNB-19) | GI50 (OVCAR-5) | GI50 (IGROV-1) | GI50 (EKVX) | GI50 (MDA-MB-231) | GI50 (CCRF-CEM)
1 | NC1CCCCC1.O=P(O)(O)C(O)/C=C/c1ccccc1 (stereo unspecified) | > 100 µM (inactive) | > 100 µM (inactive) | > 100 µM (inactive) | > 100 µM (inactive) | > 100 µM (inactive) | > 100 µM (inactive) | > 100 µM (inactive) | > 100 µM (inactive) | > 100 µM (inactive) | > 100 µM (inactive) | > 100 µM (inactive) | > 100 µM (inactive) | > 100 µM (inactive) | > 100 µM (inactive) | > 100 µM (inactive) | > 100 µM (inactive) | > 100 µM (inactive) | > 100 µM (inactive) | > 100 µM (inactive) | –
2 | COCn1c(C)c(C)c2c(=O)oc(=O)[nH]c21 | > 100 µM (inactive) | > 100 µM (inactive) | > 100 µM (inactive) | > 100 µM (inactive) | > 100 µM (inactive) | > 100 µM (inactive) | > 100 µM (inactive) | > 100 µM (inactive) | > 100 µM (inactive) | > 100 µM (inactive) | – | > 100 µM (inactive) | > 100 µM (inactive) | > 100 µM (inactive) | > 100 µM (inactive) | > 100 µM (inactive) | > 100 µM (inactive) | > 100 µM (inactive) | > 100 µM (inactive) | > 100 µM (inactive)
3 | CN(CCC(=O)O)S(=O)(=O)c1ccccc1 | > 100 µM (inactive) | > 100 µM (inactive) | > 100 µM (inactive) | > 100 µM (inactive) | > 100 µM (inactive) | > 100 µM (inactive) | > 100 µM (inactive) | – | > 100 µM (inactive) | > 100 µM (inactive) | > 100 µM (inactive) | > 100 µM (inactive) | > 100 µM (inactive) | > 100 µM (inactive) | > 100 µM (inactive) | > 100 µM (inactive) | > 100 µM (inactive) | > 100 µM (inactive) | > 100 µM (inactive) | > 100 µM (inactive)
4 | CC(=O)N1N=C(c2ccc3ccccc3c2O)CC1c1ccc(Cl)cc1Cl (stereo unspecified) | 57.7 µM (inactive) | 16.7 µM (inactive) | 18.9 µM (inactive) | 24.4 µM (inactive) | 93.1 µM (inactive) | 54.6 µM (inactive) | 7.69 µM (inactive) | > 100 µM (inactive) | – | 12.3 µM (inactive) | 15.6 µM (inactive) | 17.3 µM (inactive) | 13.2 µM (inactive) | 30.3 µM (inactive) | – | > 100 µM (inactive) | 22.4 µM (inactive) | – | 26.7 µM (inactive) | 3.91 µM (inactive)
5 | NC(=S)N/N=C\CC(O)(C(F)(F)F)C(F)(F)F | > 10 µM (inactive) | > 10 µM (inactive) | > 10 µM (inactive) | > 10 µM (inactive) | > 10 µM (inactive) | > 10 µM (inactive) | > 10 µM (inactive) | > 10 µM (inactive) | > 10 µM (inactive) | > 10 µM (inactive) | > 10 µM (inactive) | > 10 µM (inactive) | > 10 µM (inactive) | > 10 µM (inactive) | > 10 µM (inactive) | – | > 10 µM (inactive) | > 10 µM (inactive) | > 10 µM (inactive) | > 10 µM (inactive)
6 | CCOC(=O)NN(C(=O)OCC)C(=C(C1=CCCCC1)N1CCOCC1)N(NC(=O)OCC)C(=O)OCC | > 100 µM (inactive) | – | > 100 µM (inactive) | > 100 µM (inactive) | > 100 µM (inactive) | > 100 µM (inactive) | > 100 µM (inactive) | > 100 µM (inactive) | > 100 µM (inactive) | > 100 µM (inactive) | > 100 µM (inactive) | > 100 µM (inactive) | > 100 µM (inactive) | > 100 µM (inactive) | > 100 µM (inactive) | > 100 µM (inactive) | > 100 µM (inactive) | > 100 µM (inactive) | > 100 µM (inactive) | –
7 | Brc1ccc2c(c1)-c1nc3nc4c(cc3cc1CC2)CCc1ccc(Br)cc1-4 | > 100 µM (inactive) | > 100 µM (inactive) | > 100 µM (inactive) | > 100 µM (inactive) | > 100 µM (inactive) | > 100 µM (inactive) | > 100 µM (inactive) | > 100 µM (inactive) | > 100 µM (inactive) | > 100 µM (inactive) | > 100 µM (inactive) | > 100 µM (inactive) | > 100 µM (inactive) | > 100 µM (inactive) | > 100 µM (inactive) | > 100 µM (inactive) | > 100 µM (inactive) | > 100 µM (inactive) | > 100 µM (inactive) | –
8 | C=C[C@]1(C)C[C@@H](OC(=O)CO)[C@@]2(C)[C@H](C)CC[C@]3(CCC(=O)[C@H]32)[C@@H](C)[C@@H]1O | > 100 µM (inactive) | > 55.6 µM (inactive) | > 100 µM (inactive) | > 100 µM (inactive) | > 74.1 µM (inactive) | > 86.1 µM (inactive) | 40 µM (inactive) | 72.9 µM (inactive) | > 31.6 µM (inactive) | > 61.2 µM (inactive) | > 60.1 µM (inactive) | 70.5 µM (inactive) | 21.5 µM (inactive) | > 59 µM (inactive) | > 100 µM (inactive) | > 100 µM (inactive) | > 91.2 µM (inactive) | > 100 µM (inactive) | > 100 µM (inactive) | –
9 | NC(=O)NNCc1ccccc1 | > 100 µM (inactive) | > 100 µM (inactive) | > 100 µM (inactive) | > 100 µM (inactive) | – | 51.5 µM (inactive) | > 100 µM (inactive) | > 100 µM (inactive) | > 100 µM (inactive) | > 100 µM (inactive) | > 100 µM (inactive) | > 100 µM (inactive) | > 100 µM (inactive) | > 100 µM (inactive) | > 100 µM (inactive) | > 100 µM (inactive) | > 100 µM (inactive) | > 100 µM (inactive) | > 100 µM (inactive) | > 100 µM (inactive)
10 | CCN(CCCl)CCCCNc1c2ccccc2nc2ccc(OC)cc12 | 4.25 µM (inactive) | 0.0542 µM (active) | 0.157 µM (active) | 0.676 µM (active) | 1.58 µM (inactive) | 0.18 µM (active) | 0.2 µM (active) | – | 0.149 µM (active) | 0.0601 µM (active) | 1.15 µM (inactive) | 0.0535 µM (active) | 0.0141 µM (active) | 0.238 µM (active) | 0.918 µM (active) | 0.659 µM (active) | 0.163 µM (active) | 0.723 µM (active) | 0.457 µM (active) | < 0.037 µM (active)
11 | O=C(NCCN1CCCCC1)c1ccc(Br)cc1 | > 100 µM (inactive) | > 100 µM (inactive) | > 100 µM (inactive) | > 100 µM (inactive) | > 100 µM (inactive) | > 100 µM (inactive) | > 100 µM (inactive) | > 100 µM (inactive) | > 100 µM (inactive) | > 100 µM (inactive) | > 100 µM (inactive) | > 100 µM (inactive) | > 100 µM (inactive) | > 100 µM (inactive) | > 100 µM (inactive) | > 100 µM (inactive) | > 100 µM (inactive) | > 100 µM (inactive) | > 100 µM (inactive) | –
